Assay results taken from patent US10669272B2, “Substituted naphthyridinone compounds useful as T cell activators” (BRISTOL-MYERS SQUIBB COMPANY, priority 2018, dated 2020).
Like-named read-outs stand apart in the source and are kept apart here.

Legend:
Human venous whole blood = test: Human whole blood IFN-γ assay; format: cell-based;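 further: blood from healthy donors exposed to compound for 1 h before stimulation with anti-CD3 and anti-CD28 at 1 µg/mL each, IFN-γ quantified in supernatant by AlphaLISA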
Method: Human Whole Blood IFN-γ Assay
Human venous whole blood (22.5 μL per well), obtained from healthy donors, was pre-treated with compounds for one hour at 37° C. in a humidified 95% air/5% CO2 incubator. The blood was stimulated with 2.5 μL anti-human CD3 and anti-CD28 mAb at a final concentration of 1 μg/mL each for 24 hours at 37° C. IFN-γ in the supernatants was measured using AlphLISA kit (Cat # AL217).

human DGKζ = biological target: T1, human DGKζ (Homo sapiens, UniProt Q13574); test: DGKζ LIPGLO assay (extruded liposome substrate), in vitro DGK inhibition; format: biochemical; settings: read-out: DGKz LIPGLO IC50
T1 construct: TVMV protease cleavage site (C); Hexa-His (C); made in house; host or cells: Sf9 insect cells (baculovirus, Bac-to-Bac)
T1 sequence (Q13574 with tags, fused parts or gaps isoform Q13574-4): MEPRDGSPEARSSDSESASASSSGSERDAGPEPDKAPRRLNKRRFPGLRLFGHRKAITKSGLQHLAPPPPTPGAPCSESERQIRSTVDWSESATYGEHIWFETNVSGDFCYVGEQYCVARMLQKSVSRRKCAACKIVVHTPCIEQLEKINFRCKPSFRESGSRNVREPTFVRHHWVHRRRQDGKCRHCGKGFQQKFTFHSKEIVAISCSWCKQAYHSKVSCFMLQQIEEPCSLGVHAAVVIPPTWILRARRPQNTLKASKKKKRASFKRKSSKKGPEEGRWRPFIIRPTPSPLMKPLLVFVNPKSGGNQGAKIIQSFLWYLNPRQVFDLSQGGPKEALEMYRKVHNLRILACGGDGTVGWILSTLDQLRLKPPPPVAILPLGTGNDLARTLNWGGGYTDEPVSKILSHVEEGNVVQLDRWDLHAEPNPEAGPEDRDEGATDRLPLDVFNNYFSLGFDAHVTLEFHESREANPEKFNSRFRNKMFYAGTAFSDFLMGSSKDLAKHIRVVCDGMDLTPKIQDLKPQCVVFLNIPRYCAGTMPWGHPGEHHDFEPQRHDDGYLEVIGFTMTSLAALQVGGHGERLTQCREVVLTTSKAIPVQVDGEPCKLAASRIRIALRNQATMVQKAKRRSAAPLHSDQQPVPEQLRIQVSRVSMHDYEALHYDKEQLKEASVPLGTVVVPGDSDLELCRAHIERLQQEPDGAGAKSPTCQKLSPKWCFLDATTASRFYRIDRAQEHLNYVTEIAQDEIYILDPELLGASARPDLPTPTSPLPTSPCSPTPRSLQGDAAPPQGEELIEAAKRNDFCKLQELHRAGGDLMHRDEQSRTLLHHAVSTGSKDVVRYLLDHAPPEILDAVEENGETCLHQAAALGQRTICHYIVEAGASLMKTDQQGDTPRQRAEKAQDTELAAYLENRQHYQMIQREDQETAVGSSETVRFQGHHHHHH

human DGKα = biological target: T2, human DGKα (Homo sapiens, UniProt P23743); test: DGKα LIPGLO assay (extruded liposome substrate), in vitro DGK inhibition; format: biochemical; settings: read-out: DGKa LIPGLO IC50
T2 construct: TVMV protease cleavage site (C); Hexa-His (C); made in house; host or cells: Sf9 insect cells (baculovirus, Bac-to-Bac)
T2 sequence (P23743 with tags, fused parts or gaps): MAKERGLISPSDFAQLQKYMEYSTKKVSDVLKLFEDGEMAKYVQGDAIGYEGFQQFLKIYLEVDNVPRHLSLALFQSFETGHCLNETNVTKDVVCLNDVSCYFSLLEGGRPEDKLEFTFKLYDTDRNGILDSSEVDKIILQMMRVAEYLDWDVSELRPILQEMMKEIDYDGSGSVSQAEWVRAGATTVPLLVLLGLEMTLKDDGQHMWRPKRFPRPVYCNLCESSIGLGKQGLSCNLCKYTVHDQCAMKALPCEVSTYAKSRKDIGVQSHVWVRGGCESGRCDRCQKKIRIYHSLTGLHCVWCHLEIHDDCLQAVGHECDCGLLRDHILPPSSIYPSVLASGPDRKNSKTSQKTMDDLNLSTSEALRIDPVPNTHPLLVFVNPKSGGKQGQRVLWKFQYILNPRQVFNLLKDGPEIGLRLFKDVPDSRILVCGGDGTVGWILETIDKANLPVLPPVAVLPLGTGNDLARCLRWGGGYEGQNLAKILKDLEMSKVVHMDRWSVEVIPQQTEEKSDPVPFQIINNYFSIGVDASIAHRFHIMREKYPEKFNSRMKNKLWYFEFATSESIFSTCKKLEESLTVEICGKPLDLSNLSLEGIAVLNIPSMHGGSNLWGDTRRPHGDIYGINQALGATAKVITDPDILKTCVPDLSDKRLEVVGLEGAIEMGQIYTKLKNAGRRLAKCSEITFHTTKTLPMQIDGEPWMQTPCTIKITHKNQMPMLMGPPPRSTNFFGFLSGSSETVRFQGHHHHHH

[1] = human whole blood; normalized to 3 μM reference compound with anti-CD3 plus anti-CD28 as 100% activation; read-out: INFg Whole Blood Normalized Agonist EC50
[2] = Homo sapiens, 24 h, human whole blood; normalized to 3 μM reference compound with anti-CD3 plus anti-CD28 as 100% activation; read-out: INFg Whole Blood Normalized Agonist EC50

SMILES	IC50 (human DGKζ; liposome (LIPGLO) assay) [nM]	IC50 (human DGKζ; DGKζ liposome (LIPGLO) assay) [nM]	IC50 (human DGKα; DGKα liposome (LIPGLO) assay) [nM]	IC50 (human DGKα; liposome (LIPGLO) assay) [nM]	also measured
C[C@@H]1CN(c2cc(=O)n(C)c3ccc(C#N)nc23)[C@@H](C)CN1C(c1ccccc1)c1ccc(F)cc1 (single isomer, unassigned) [Example 184]	–	–	–	–	EC50 (Human venous whole blood; [1]): 570 nM
CCC(c1cc(Cl)cc2c1OCC2)N1C[C@H](C)N(c2cc(=O)n(C)c3ccc(C#N)nc23)C[C@H]1C (single isomer, unassigned) [Example 357]	890	–	–	–	EC50 (Human venous whole blood; [1]): 13000 nM
CC(c1ccc(OC(F)(F)F)cc1F)N1C[C@H](C)N(c2cc(=O)n(C)c3ccc(C#N)nc23)C[C@H]1C (single isomer, unassigned) [Example 439]	320	–	–	–	EC50 (Human venous whole blood; [1]): 680 nM
CC(c1ccc(C(F)(F)F)cn1)N1C[C@H](C)N(c2cc(=O)n(C)c3ccc(C#N)nc23)C[C@H]1C (single isomer, unassigned) [Example 642]	190	–	–	–	EC50 (Human venous whole blood; [2]): 3300 nM
C[C@@H]1CN(c2cc(=O)n(C)c3ccc(C#N)nc23)[C@@H](C)CN1C(c1ccc(F)cc1)c1nc(C2CCN(C)CC2)no1 (single isomer, unassigned) [Example 751]	–	17000	–	–	EC50 (Human venous whole blood; human whole blood, anti-CD3 plus anti-CD28, 24 hours; 3 μM reference compound = 100% activation; read-out: INFg Whole Blood Normalized Agonist EC50): 4500 nM
C[C@@H]1CN(c2c(C#N)c(=O)n(C)c3ccc(C#N)nc23)CCN1C(c1ccccc1)c1ccc(Cl)cc1 (single isomer, unassigned) [Example 887]	–	–	–	–	EC50 (Human venous whole blood; read-out: INFg Whole Blood Normalized Agonist EC50; human whole blood, anti-CD3 plus anti-CD28, 24 hours; 3 μM reference compound = 100% activation): 1600 nM
CC[C@H]1CN(C(c2ccc(F)cc2)c2ccccn2)[C@H](CC)CN1c1cc(=O)n(C)c2ccc(C#N)nc12 (single isomer, unassigned) [Example 1044]	70	–	–	–	EC50 (Human venous whole blood; [1]): 350 nM
CC(c1ccc(P(C)(C)=O)cc1)N1C[C@H](C)N(c2c(C#N)c(=O)n(C)c3ccc(C#N)nc23)C[C@H]1C (single isomer, unassigned) [Example 1294]	220000	–	–	–	EC50 (Human venous whole blood; [2]): 20000 nM
COC[C@@H]1CN(c2cc(=O)n(C)c3ccc(C#N)nc23)[C@@H](C)CN1C(c1ccc(F)cc1)c1nc(C2CC2)cs1 (single isomer, unassigned) [Example 1395]	70	–	–	–	EC50 (Human venous whole blood; [1]): 190 nM
Cc1ccc(C(c2ccc(Cl)cc2)N2C[C@H](C)N(c3c(C#N)c(=O)n(C)c4ccc(C#N)nc34)C[C@H]2C)cc1 (stereo partly drawn) [Example 825]	–	3200	23000	–	–
Cc1ccc(C(c2ccc(Cl)cc2)N2C[C@H](C)N(c3c(C#N)c(=O)n(C)c4ccc(C#N)nc34)C[C@H]2C)cc1 (stereo partly drawn) [Example 826]	–	3100	43000	–	–
C[C@@H]1CN(c2c(C#N)c(=O)n(C)c3ccc(C#N)nc23)CCN1C(c1ccccc1)c1cc(F)cc(F)c1 (stereo partly drawn) [Example 874]	–	2200	14000	–	–
C[C@@H]1CN(c2c(C#N)c(=O)n(C)c3ccc(C#N)nc23)CCN1C(c1ccc(Cl)cc1)c1ncccc1F (stereo partly drawn) [Example 909]	–	16000	3400	–	–
C[C@@H]1CN(c2c(C#N)c(=O)n(C)c3ccc(C#N)nc23)CCN1C(c1ccc(Cl)cc1)c1ncccc1F (stereo partly drawn) [Example 913]	–	5500	2100	–	–
C[C@@H]1CN(c2c(C#N)c(=O)n(C)c3ccc(C#N)nc23)CCN1C(c1ccc(Cl)cc1)c1ccc(Cl)cn1 (stereo partly drawn) [Example 931]	–	2700	800	–	–
Cc1ccc(C(c2ccc(F)cc2Cl)N2CCN(c3c(C#N)c(=O)n(C)c4ccc(C#N)nc34)C[C@H]2C)nc1 (stereo partly drawn) [Example 938]	–	2800	5900	–	–
C[C@@H]1CN(c2c(C#N)c(=O)n(C)c3ccc(C#N)nc23)CCN1C(c1ccc(F)cc1)c1cnccn1 (stereo partly drawn) [Example 943]	–	6700	1100	–	–
CC(c1ccc(C(=O)O)cc1)N1CCN(c2c(C#N)c(=O)n(C)c3ccc(C#N)nc23)C[C@H]1C (stereo partly drawn) [Example 973]	–	> 250000	> 250000	–	–
COC(=O)c1ccc(C(C)N2CCN(c3c(C#N)c(=O)n(C)c4ccc(C#N)nc34)C[C@H]2C)cc1 (stereo partly drawn) [Example 980]	–	13000	5700	–	–
C[C@@H]1CN(c2c(C#N)c(=O)n(C)c3ccc(C#N)nc23)CCN1Cc1c(F)cccc1Cl [Example 984]	–	880	1500	–	–
C[C@@H]1CN(c2c(C#N)c(=O)n(C)c3ccc(C#N)nc23)CCN1Cc1cccnc1 [Example 998]	–	> 250000	21000	–	–

SMILES	IC50 (human DGKζ; liposome (LIPGLO) assay) [nM]	IC50 (human DGKζ; DGKζ liposome (LIPGLO) assay) [nM]	IC50 (human DGKα; DGKα liposome (LIPGLO) assay) [nM]	IC50 (human DGKα; liposome (LIPGLO) assay) [nM]	also measured
Cc1ccc(CN2CCN(c3c(C#N)c(=O)n(C)c4ccc(C#N)nc34)C[C@H]2C)cc1 [Example 1007]	–	3900	420	–	–
C[C@@H]1CN(c2c(C#N)c(=O)n(C)c3ccc(C#N)nc23)CCN1Cc1cccc(OC(F)(F)F)c1 [Example 1008]	–	7100	1700	–	–
Cc1cccc(CN2CCN(c3c(C#N)c(=O)n(C)c4ccc(C#N)nc34)C[C@H]2C)c1 [Example 1012]	–	1400	350	–	–
CC[C@H]1CN(C(c2cccc(F)c2)c2ccc(OC)cn2)[C@H](CC)CN1c1cc(=O)n(C)c2ccc(C#N)nc12 (stereo partly drawn) [Example 1047]	270	–	–	210	–
CC[C@@H]1CN(c2cc(=O)n(C)c3ccc(C#N)nc23)[C@@H](CC)CN1Cc1ccc(F)cc1 [Example 1061]	100	–	–	11	–
CC[C@H]1CN(C(c2ccc(F)cc2)c2nc(C3CC3)no2)[C@H](CC)CN1c1cc(=O)n(C)c2ccc(C#N)nc12 (stereo partly drawn) [Example 1064]	39	–	–	80	–
CC[C@H]1CN(C(c2ccc(F)cc2)c2nc(C3CC3)cs2)[C@H](CC)CN1c1cc(=O)n(C)c2ccc(C#N)nc12 (stereo partly drawn) [Example 1066]	30	–	–	28	–
CC[C@@H]1CN(c2cc(=O)n(C)c3ccc(C#N)nc23)[C@@H](C)CN1C(c1ccc(F)cc1)c1nc(C2CC2)no1 (stereo partly drawn) [Example 1116]	13	–	–	31	–
Cc1ccc(C(c2ccc(C)cc2)N2C[C@H](C)N(c3cc(=O)n(C)c4ccc(C#N)nc34)C[C@H]2CO)cc1 [Example 1150, 8-((2S,5S)-4-(di-p-tolylmethyl)-5-(hydroxymethyl)-2-methylpiperazin-1-yl)-5-methyl-6-oxo-5,6-dihydro-1,5-naphthyridine-2-carbonitrile]	18000	–	–	18000	–
C[C@H]1CN(C(c2ccc(F)cc2)c2ccc(F)cc2)[C@H](CO)CN1c1cc(=O)n(C)c2ccc(C#N)nc12 [Example 1151]	22000	–	–	9600	–
Cc1ccc(C(c2cccc(F)c2)N2C[C@H](C)N(c3cc(=O)n(C)c4ccc(C#N)nc34)C[C@H]2CO)nc1 (stereo partly drawn) [Example 1153]	32000	–	–	6600	–
CC[C@@H]1CN(c2cc(=O)n(C)c3ccc(C#N)nc23)[C@@H](C)CN1C(CC1CCCCC1)c1ccc(OC(F)(F)F)cc1 (stereo partly drawn) [Example 1195]	280	–	–	830	–
CC[C@@H]1CN(c2cc(=O)n(C)c3ccc(C#N)nc23)[C@@H](C)CN1C(CC1CCCCC1)c1ccc(OC(F)(F)F)cc1 (stereo partly drawn) [Example 1196]	270	–	–	1400	–
CCC(c1cc(OC(F)(F)F)ccc1F)N1C[C@H](C)N(c2cc(=O)n(C)c3ccc(C#N)nc23)C[C@H]1C (stereo partly drawn) [Example 1206]	–	–	–	–	EC50 (Human venous whole blood; [1]): 2100 nM
CC(c1ccc(F)c(C#N)c1)N1C[C@H](C)N(c2cc(=O)n(C)c3ccc(C#N)nc23)C[C@H]1C (stereo partly drawn) [Example 1262]	1300	–	–	5400	–
COCc1ccc(C(C)N2C[C@H](C)N(c3cc(=O)n(C)c4ccc(C#N)nc34)C[C@H]2C)cc1 (stereo partly drawn) [Example 1266]	–	–	–	–	EC50 (Human venous whole blood; [1]): 1400 nM
C[C@@H]1CN(c2cc(=O)n(C)c3ccc(C#N)nc23)[C@@H](C)CN1C(CO)c1ccc(C(F)(F)F)cn1 (stereo partly drawn) [Example 1279, 8-((2S,5R)-4-(2-hydroxy-1-(5-(trifluoromethyl)pyridin-2-yl)ethyl)-2,5-dimethylpiperazin-1-yl)-5-methyl-6-oxo-5,6-dihydro-1,5-naphthyridine-2-carbonitrile]	1400	–	–	1400	–
COc1ccc(C(C)N2C[C@H](C)N(c3cc(=O)n(C)c4ccc(C#N)nc34)C[C@H]2C)cc1OCCN1CCOCC1 (stereo partly drawn) [Example 1304]	17000	–	–	110000	–
COC[C@@H]1CN(c2cc(=O)n(C)c3ccc(C#N)nc23)[C@@H](C)CN1C(c1ccc(F)cc1)c1nc(C2CC2)no1 (stereo partly drawn) [Example 1393, 8-((2S,5S)-4-((3-cyclopropyl-1,2,4-oxadiazol-5-yl)(4-fluorophenyl)methyl)-5-(methoxymethyl)-2-methylpiperazin-1-yl)-5-methyl-6-oxo-5,6-dihydro-1,5-naphthyridine-2-carbonitrile]	16	–	–	22	–
C[C@@H]1CN(c2cc(=O)n(C)c3ccc(C#N)nc23)[C@@H](C)CN1Cc1nnc(C(F)(F)F)o1 [Example 1436]	5600	–	–	11000	–
